Legend:
BALB/c mice [1] = assay: Intranasal immunization with OVA plus lipopeptide, specific antibody ELISA; details: for serum OVA-specific IgA / serum OVA-specific IgG: intranasal OVA (10 μg) plus lipopeptide, day 0, 14, 28, sera 14 days after final immunization, compared with OVA alone; for serum OVA-specific IgA / serum OVA-specific IgG / serum OVA-specific IgG response compared with Pam2CSK4 / vaginal OVA-specific IgG compared with Pam2CSK4: n=5; for serum OVA-specific IgG response compared with Pam2CSK4 / serum OVA-specific IgG2a levels: intranasal OVA plus lipopeptide; for serum OVA-specific IgG2a levels: n=5, Figure 4H; for OVA-specific sIgA in BALF compared with Pam2CSK4: n=5, Figures 5J, K; for vaginal OVA-specific IgG compared with Pam2CSK4: vaginal wash, only adjuvanted with LP2-2 reached significance
Experimental: (§2) For OVA immunization, mice were divided into 7 groups randomly. Mice were the mice were anesthetized with pentobarbital sodium (50 mg/kg) and then intranasally immunized with PBS, OVA (10 μg), OVA (10 μg) plus one of the following lipopeptides: LP1-30, LP1-34, LP2-2 and LP2-3 or OVA plus Pam2CSK4 on day 0, 14, 28. […] For SARS-CoV-2 recombinant RBD (rRBD) immunization, mice were intranasally immunized at two-week intervals with PBS, rRBD, rRBD plus LP1-34, rRBD plus LP2-2 or rRBD plus Pam2CSK4. Two weeks post the final immunization, mice were sacrificed and sera, saliva, stomach homogenates, intestinal lavage fluid and vaginal wash were collected for further analysis.
(§3) Specific IgG and sIgA levels were determined by standard indirect ELISA. 96-well flat bottom plates were coated with OVA or rRBD and incubated overnight at 4°C. After blocking with 5% BSA in PBST, the diluted samples were added into the plates and incubated at 37°C for 1h. HRP-conjugated goat anti-mouse IgG, IgG1, IgG2a or IgA was used as a secondary antibody. TMB substrate solution was added each well and incubated about 5-10 min. Then, the reaction was ended by adding stop solution. Finally, the optical density was detected by at 450nm in a micro-plate reader (Thermo Scientific).

BALB/c mice [2] = assay: Intranasal immunization with SARS-CoV-2 rRBD plus lipopeptide, specific antibody ELISA; details: for RBD-specific serum IgG / RBD-specific serum IgA: intranasal rRBD with or without lipopeptide; for RBD-specific serum IgG: n=5, Figure 8A; for RBD-specific serum IgA: n=5, Figure 8B; for RBD-specific serum IgG1 compared with rRBD alone group: n=5, Figure 8C
Experimental: as §2, §3

[3] = biological target: T1, HEK-Blue mTLR2 cells (TLR2) (Mus musculus, UniProt Q9QUN7); assay: TLR2 signaling assay (SEAP activity, HEK-Blue detection); assay type: cell-based; details: 14 h at 37°C, read at 620 nm, n=3, Figure 2A
T1 construct: host or cells: HEK-Blue mTLR2 cells (HEK293-derived reporter line)
Experimental: HEK-Blue™ detection was prepared according to manufacturer’s instruction. Briefly, the lipopeptides were added into a flat-bottom 96-well plate (20μL per well) and endotoxin-free water was used as a negative control. Then HEK-Blue™ mTLR2 cells were suspended in HEK-Blue™ detection and added into the plate (180μL per well, 5×10^4 cells). After incubation at 37°C for 14h, the SEAP activity was measured by a spectrophotometer at 620nm.

RBD-ACE2 interaction = assay: SARS-CoV-2 neutralizing antibody detection (ELISA) after rRBD immunization; details: for rRBD-induced SARS-CoV-2 neutralizing antibody in sera (inhibition of RBD-ACE2 interaction): n=5, compared with rRBD alone group, Figures 9A, B
Experimental: For SARS-CoV-2 recombinant RBD (rRBD) immunization, mice were intranasally immunized at two-week intervals with PBS, rRBD, rRBD plus LP1-34, rRBD plus LP2-2 or rRBD plus Pam2CSK4. Two weeks post the final immunization, mice were sacrificed and sera, saliva, stomach homogenates, intestinal lavage fluid and vaginal wash were collected for further analysis.
SARS-CoV-2 neutralizing antibody detection was performed according to the manufacturer’s instruction (zybio). Briefly, the diluted sera, BALF or nasal wash mixed with HRP-conjugated RBD were added into the hACE2-coated plate, and then the plate was incubated at 37°C for 1h. After washing the plate, the TMB substrate was added and incubated at 37°C for 10min. Finally, the reaction was ended by adding the stop solution and the absorbance was measured with a micro-plate reader (Thermo Scientific) at 450 nm.

SARS-CoV-2 pseudovirus = details: in vivo
[4] = cited from earlier work
Excerpt: A number of studies have shown that lipopeptides have a significant mucosal adjuvant effect ([36]–[38]). MALP-2, the mycoplasma-derived lipopeptide, elevated the level of sIgA in BALF and vaginal lavages when intranasal co-administration with a soluble antigen ([25]).

BALB/c mice [5] = assay type: in vivo, mouse; details: splenic lymphocytes, 10 μg/mL peptide, 48 h, n=5, Figure 6
TLR2 = details: cited from earlier work
Excerpt: In recent years, a variety of lipopeptides have been designed and synthesized to exert adjuvant effects through activating TLR2 ([18]–[20]). […] The TLR2 activity of FSL-1 can reach 4 times that of MALP-2, while Pam2CSK4 is the ...

BMDCs [6] = assay: Cytokines assay (ELISA of BMDC supernatants); assay type: cell-based, mouse; details: lipopeptide 1 μg/mL, 48 h, n=3, Figure 3G
Experimental: (§1) Bone marrow-derived dendritic cells (BMDCs) were isolated using methods described previously ([26], [27]). Briefly, the cells were obtained by flushing the femurs of female BALB/C mice, then differentiated in RPMI 1640 medium containing 10% FBS and supplemented with IL-4 (10ng/mL) and GM-CSF (10ng/mL) for 7 days at 37°C in 5% CO2.
BMDCs (4 × 10^6 cells/well in 4mL RMPI-1640 medium) were stimulated with either synthetic lipopeptide (1 μg/mL) or PBS for 48 h. The expressions of IL-1β, TNF-α and IL-12 were analyzed by ELISA kit according to the manufacturer’s instructions.

BMDCs [7] = assay: Cell viability assay (MTT); assay type: cell-based, mouse; details: test concentrations 10-200μg/mL, 48 h, n=3, Figure S3A
Experimental: The cell viability was analyzed by MTT assay. Briefly, BMDCs were cultured with gradient dilutions of each lipopeptide for 48 h. After that, 20 μL of a MTT solution (5 mg/ml) were added per well and incubated at 37°C for 4 h. Then, the mixture was removed from the well and 100 μL DMSO were added. The absorbance was detected at a wavelength of 570 nm. % surviving cells = Mean optical absorption of cells exposed to the lipopeptide/Mean optical absorption of control cells × 100.
as §1

BMDCs [8] = assay: BMDC maturation surface markers by flow cytometry; assay type: cell-based, mouse; details: BMDCs stimulated 2 days, FACS, Figures 3A-D
Experimental: as §1
BMDCs were collected after being treated with each lipopeptidet for 48h. The expressions of surface markers on BMDCs were detected by FCM with a FACS Canto II (BD Biosciences). The cells were stained with CD11c-FITC (Biolegend, 117306), CD86-PerCP (Biolegend, 105026), CD80-APC (Biolegend, 104714) and CD40-PE (Biolegend, 124610) at 4°C for 30min. After washing with PBS, the expression of costimulatory molecules was detected by flow cytometer.

T1 sequence (Q9QUN7 25-784): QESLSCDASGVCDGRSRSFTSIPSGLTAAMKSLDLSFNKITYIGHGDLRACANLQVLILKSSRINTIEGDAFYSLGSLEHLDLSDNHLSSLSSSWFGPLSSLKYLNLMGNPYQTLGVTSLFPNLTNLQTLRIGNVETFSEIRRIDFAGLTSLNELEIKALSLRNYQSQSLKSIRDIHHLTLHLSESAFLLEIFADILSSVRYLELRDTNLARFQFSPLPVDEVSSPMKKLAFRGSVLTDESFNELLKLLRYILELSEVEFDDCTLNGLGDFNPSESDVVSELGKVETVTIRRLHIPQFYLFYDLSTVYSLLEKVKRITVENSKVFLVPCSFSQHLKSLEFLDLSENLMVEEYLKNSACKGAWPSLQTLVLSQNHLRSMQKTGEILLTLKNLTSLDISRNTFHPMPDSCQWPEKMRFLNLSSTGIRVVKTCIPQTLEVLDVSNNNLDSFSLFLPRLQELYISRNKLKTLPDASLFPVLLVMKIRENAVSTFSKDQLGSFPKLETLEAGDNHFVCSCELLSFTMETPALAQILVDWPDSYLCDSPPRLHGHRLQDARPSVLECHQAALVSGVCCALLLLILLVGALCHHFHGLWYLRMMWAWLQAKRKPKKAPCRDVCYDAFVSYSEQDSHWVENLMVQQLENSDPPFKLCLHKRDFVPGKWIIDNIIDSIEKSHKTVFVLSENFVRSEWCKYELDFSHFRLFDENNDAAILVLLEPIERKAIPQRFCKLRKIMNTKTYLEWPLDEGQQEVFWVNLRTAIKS

Pam2Cys-SEFAHPRHG [LP2-2, novel synthetic lipopeptide]
serum OVA-specific IgA (BALB/c mice [1]): significantly increased | serum OVA-specific IgG (BALB/c mice [1]): significantly increased | serum OVA-specific IgG response compared with Pam2CSK4 (BALB/c mice [1]): more robust | serum OVA-specific IgG2a levels (BALB/c mice [1]): elevated | OVA-specific sIgA in BALF compared with Pam2CSK4 (BALB/c mice [1]): higher level | vaginal OVA-specific IgG compared with Pam2CSK4 (BALB/c mice [1]): higher level | RBD-specific serum IgG (BALB/c mice [2]): significantly improved | RBD-specific serum IgA (BALB/c mice [2]): significantly improved | RBD-specific serum IgG1 compared with rRBD alone group (BALB/c mice [2]): elevated | RBD-specific serum IgG2a compared with rRBD alone group (BALB/c mice [2]; n=5, Figure 8D): elevated | SEAP activity compared with Pam2CSK4 [3]: more increased SEAP activity than Pam2CSK4 | rRBD-induced SARS-CoV-2 neutralizing antibody in sera (inhibition of RBD-ACE2 interaction) (RBD-ACE2 interaction): significantly elevated | SARS-CoV-2 pseudovirus neutralizing antibody titers in serum (SARS-CoV-2 pseudovirus): significantly augment

MALP-2
sIgA in BALF and vaginal lavages ([4]; intranasal co-administration with a soluble antigen): elevated

Pam2CSK4 [reference compound]
serum OVA-specific IgG2a levels (BALB/c mice [1]): elevated | RBD-specific serum IgG (BALB/c mice [2]): significantly improved | RBD-specific serum IgA (BALB/c mice [2]): significantly improved | RBD-specific serum IgG1 compared with rRBD alone group (BALB/c mice [2]): elevated | RBD-specific serum IgG2a compared with rRBD alone group (BALB/c mice [2]; n=5, Figure 8D): elevated | rRBD-induced SARS-CoV-2 neutralizing antibody in sera (inhibition of RBD-ACE2 interaction) (RBD-ACE2 interaction): significantly elevated | SARS-CoV-2 pseudovirus neutralizing antibody titers in serum (SARS-CoV-2 pseudovirus): significantly augment | IFN-γ-forming OVA257-264-specific CD8+ T cell response (BALB/c mice [5]): slightly elevated | IFN-γ-forming OVA323-339-specific CD4+ T cell response (BALB/c mice [5]): slightly elevated | TLR2 agonist potency rank among the four lipopeptides (FSL-1, FSL-2, MALP-2, Pam2CSK4) (TLR2): most potent TLR2 agonist

FSL-2
TLR2 activity of FSL-2 relative to that of FSL-1 (TLR2): 80%

Pam2Cys-SHYAPLPDS [LP1-34, novel synthetic lipopeptide]
levels of IL-12 from BMDCs compared with Pam2CSK4 (BMDCs [6]): higher levels | serum OVA-specific IgA (BALB/c mice [1]): significantly increased | serum OVA-specific IgG (BALB/c mice [1]): significantly increased | OVA-specific sIgA in BALF compared with Pam2CSK4 (BALB/c mice [1]): higher level | vaginal OVA-specific IgG compared with Pam2CSK4 (BALB/c mice [1]): higher level | ability to enhance the level of RBD-specific mucosal sIgA and IgG compared with Pam2CSK4 (BALB/c mice [2]; intranasal rRBD plus lipopeptide, n=5): stronger | RBD-specific serum IgG (BALB/c mice [2]): significantly improved | RBD-specific serum IgA (BALB/c mice [2]): significantly improved | RBD-specific serum IgG1 compared with rRBD alone group (BALB/c mice [2]): elevated | RBD-specific serum IgG2a compared with rRBD alone group (BALB/c mice [2]; n=5, Figure 8D): elevated | rank of RBD-specific IgG2a response among LP1-34, LP2-2 and Pam2CSK4 (BALB/c mice [2]; n=5, Figure 8D): highest | SEAP activity compared with Pam2CSK4 [3]: more increased SEAP activity than Pam2CSK4 | ability of BALF and nasal wash to inhibit RBD interaction with ACE2 (RBD-ACE2 interaction; n=5, Figures 9C, D): improved | rRBD-induced SARS-CoV-2 neutralizing antibody in sera (inhibition of RBD-ACE2 interaction) (RBD-ACE2 interaction): significantly elevated | SARS-CoV-2 pseudovirus neutralizing antibody titers in serum (SARS-CoV-2 pseudovirus): significantly augment

Pam2Cys-SKHANNTHA [LP1-14, novel synthetic lipopeptide]
SEAP activity compared with Pam2CSK4 [3]: more increased SEAP activity than Pam2CSK4 | cytotoxicity on BMDCs (MTT) (BMDCs [7]): slightly cytotoxic

FSL-1
TLR2 activity of FSL-1 relative to that of MALP-2 (TLR2): 4 times | EV71-specific IgG and IgA in serum, nasal washes, BALF, and feces compared with the control group ([4]; intranasal, inactivated EV71 vaccine plus FSL-1): higher level

Pam2Cys-SLARRNDTN [LP1-30, novel synthetic lipopeptide]
stimulating effect on costimulatory molecule expression of BMDCs compared with Pam2CSK4 (BMDCs [8]): more potent stimulating effect | levels of IL-12 from BMDCs compared with Pam2CSK4 (BMDCs [6]): higher levels | anti-lipopeptide IgG antibodies in sera (BALB/c mice [1]; OVA+LP1-30 group, ELISA, n=5, Figure S4): did not reach statistical significance | serum OVA-specific IgA (BALB/c mice [1]): significantly increased | serum OVA-specific IgG (BALB/c mice [1]): significantly increased | vaginal OVA-specific IgG compared with Pam2CSK4 (BALB/c mice [1]): higher level | SEAP activity compared with Pam2CSK4 [3]: more increased SEAP activity than Pam2CSK4

Pam2Cys-SEFQATYAP [LP2-3, novel synthetic lipopeptide]
serum OVA-specific IgA (BALB/c mice [1]): significantly increased | serum OVA-specific IgG (BALB/c mice [1]): significantly increased | serum OVA-specific IgG response compared with Pam2CSK4 (BALB/c mice [1]): more robust | serum OVA-specific IgG2a levels (BALB/c mice [1]): elevated | SEAP activity compared with Pam2CSK4 [3]: more increased SEAP activity than Pam2CSK4

Reference: paper PMC8959576 (Frontiers in Immunology, 2022)
